In assay [1] the test system is LN229 R132H cells overexpressing mutated isocitrate dehydrogenase (mIDH). Description: Mutant IDH1 cellular assay (2-HG levels in medium). Particulars: 2-HG in medium of LN229 R132H cells, 24 hours incubation, fluorescence readout. The assay is classed as cell-based. How it is done:
Mutant IDH1 Cellular Assay
Levels of (2R)-2-hydroxyglutarate (2HG) were measured in medium of a cell line with overexpression of mutated isocitrate dehydrogenase (mIDH) protein. mIDH catalyzes the NADPH-dependent reduction of alpha-ketoglutarate to 2-HG. Cells (LN229 R132H, Mohrenz et al., Apoptosis (2013) 18:1416-1425) were grown in DMEM containing 10% FCS. They were harvested by trypsin and seeded into 96-well plates. Cells were incubated overnight at 37° C. in 5% CO2. The next day test compounds were added to each cell well. The final concentration of DMSO was 0.1% and DMSO controls were included. The plates were then placed in an incubator for 24 hours.
2-HG was measured according to Balss et al. (Acta Neuropathol (2012) 124: 883-891). Briefly, HClO4 was added to each well and the plates were centrifuged. Aliquots are removed and incubated with hydroxyglutarate dehydrogenase (HGDH), diaphorase, NAD+, and resazurin. The conversion of resazurin to resorufin was detected by fluorescence spectroscopy at Ex 540 nm Em 600 nm. The increase in fluorescence is proportional to 2-HG production. IC50 values are determined by interpolation from plots of relative fluorescence vs inhibitor concentration.

For another assay, the target named is IDH1 R132H enzyme (Homo sapiens (Human), UniProt O75874, R132H). The experiment in a line: Mutant IDH1 R132H biochemical assay. Also: 1.5 nM enzyme. Particulars: NADPH consumption, luminescent readout, 250 μM α-KG, 1 μM NADPH, 32° C., 30 minutes, test range 0.002-10 μM. The protocol: mIDH1 catalyzes the NADPH-dependent reduction of alpha-ketoglutarate (α-KG) to (2R)-2-hydroxyglutarate (2-HG). NADPH consumption was measured by luminescent readout.
The biochemical reactions were performed at 32° C. in 384-well plates using a reaction volume of 41 μl and the following assay buffer conditions: 50 mM Tris pH 7.5, 100 mM NaCl, 20 mM MgCl2, 0.05% BSA, 0.01% Brij, 1 μM NADPH, and 250 μM α-KG. […] Test compounds were used in a concentration range between 0.002 and 10 μM. The final DMSO concentration was 2.4%.
The reaction was incubated for 30 minutes, then 40 μl of detection mix (0.75 μg/ml Luciferase, 0.02 U/ml Oxidoreductase, 4 μg/ml FMN, 2 μl/ml Decanal/Ethanol, 50 mM Tris pH 7.5, 0.5% Glycerin, 0.01% Tween-20, 0.05% BSA) was added. Luminescence was measured on a luminescent reader (10 seconds measuring time, 1 second integration period, 30% sensitivity). The decrease in luminescence is proportional to mIDH1 activity. IC50 values are determined by interpolation from plots of relative luminescence versus inhibitor concentration.

We go through nine compounds from patent publication US10138226B2, “Benzimidazol-2-amines as MIDH1 inhibitors” (Bayer Pharma Aktiengesellschaft, priority 2014, dated 2018).

Each structure is given as a SMILES string.

Chain of IDH1 R132H enzyme (O75874 whole entry R132H): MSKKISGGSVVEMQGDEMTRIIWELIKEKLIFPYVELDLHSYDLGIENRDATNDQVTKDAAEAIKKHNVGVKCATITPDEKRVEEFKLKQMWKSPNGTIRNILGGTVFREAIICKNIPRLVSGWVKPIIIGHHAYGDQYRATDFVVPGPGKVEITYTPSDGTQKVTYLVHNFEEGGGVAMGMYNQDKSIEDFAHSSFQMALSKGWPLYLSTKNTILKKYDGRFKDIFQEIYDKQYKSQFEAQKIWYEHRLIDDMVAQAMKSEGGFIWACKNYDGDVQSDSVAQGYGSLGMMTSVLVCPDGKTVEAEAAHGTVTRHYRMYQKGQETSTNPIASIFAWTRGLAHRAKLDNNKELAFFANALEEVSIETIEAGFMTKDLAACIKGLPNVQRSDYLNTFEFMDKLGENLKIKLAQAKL

For the compound `C[C@@H]1C[C@H](n2c(Nc3ccc(OC(F)(F)F)cc3)nc3ccc(C(=O)N4CCOCC4)cc32)CC(C)(C)C1` (single isomer, unassigned; enantiomer a) [Example 2-16-1, morpholin-4-yl(2-{[4-(trifluoromethoxy)phenyl]amino}-1-[(cis)-3,3,5-trimethylcyclohexyl]-1H-benzimidazol-6-yl)methanone, enantiomer A], it took 500 nM to reach half-maximal inhibition in assay [1] (IC50). This counts as sub-micromolar.

`C[C@@H]1C[C@H](n2c(Nc3ccc(OC(F)(F)F)cc3)nc3ccc(C(=O)N(C)C)cc32)CC(C)(C)C1` (single isomer, unassigned; enantiomer b) [Example 2-20-2, (±) N,N-dimethyl-2-{[4-(trifluoromethoxy)phenyl]amino}-1-[(cis)-3,3,5-trimethylcyclohexyl]-1H-benzimidazole-6-carboxamide, enantiomer B]: the figures for the IC50 (against IDH1 R132H enzyme; in assay [1]) were 200 nM and 4300 nM, respectively.

Take `COC(=O)CN(C)C(=O)c1ccc2nc(Nc3ccc(OC(F)(F)F)cc3)n([C@H]3C[C@@H](C)CC(C)(C)C3)c2c1` (racemic) [Example 2-9, (±) methyl N-methyl-N-[(2-{[4-(trifluoromethoxy)phenyl]amino}-1-[(cis)-3,3,5-trimethylcyclohexyl]-1H-benzimidazol-6-yl)carbonyl]glycinate]: the IC50 against IDH1 R132H enzyme was found to be 250 nM; in assay [1] (Homo sapiens, LN-229, 24 h), 9000 nM.

Consider `C[C@@H]1C[C@H](n2c(Nc3ccc(OC(F)(F)F)cc3)nc3ccc(C(=O)N4CCOCC4)cc32)CC(C)(C)C1` (single isomer, unassigned; enantiomer b) [Example 2-16-2, morpholin-4-yl(2-{[4-(trifluoromethoxy)phenyl]amino}-1-[(cis)-3,3,5-trimeethylcyclohexyl]-1H-benzimidazol-6-yl)methanone, enantiomer B], for which, in assay [1] (Homo sapiens, LN-229, 24 h), it took 400 nM to reach half-maximal inhibition (IC50).

For the compound `COC(=O)c1ccc2nc(Nc3ccc(OC(F)(F)F)cc3)n([C@H]3C[C@@H](C)CC(C)(C)C3)c2c1` (single isomer, unassigned; enantiomer b) [Example 2-1-2, methyl 2-{[4-(trifluoromethoxy)phenyl]amino}-1-[(cis)-3,3,5-trimethylcyclohexyl]-1H-benzimidazole-6-carboxylate, enantiomer B], it took 5700 nM to reach half-maximal inhibition in assay [1] (Homo sapiens, LN-229, 24 h) (IC50).

Compound `COC(=O)c1ccc2nc(Nc3ccc(OC(F)(F)F)cc3)n([C@H]3C[C@@H](C)CC(C)(C)C3)c2c1` (racemic) [Example 2-1, (±) methyl 2-{[4-(trifluoromethoxy)phenyl]amino}-1-[(cis)-3,3,5-trimethylcyclohexyl]-1H-benzimidazole-6-carboxylate] displayed an IC50 in assay [1] (Homo sapiens, LN-229, 24 h) of 3200 nM.

On to `C[C@@H]1C[C@H](n2c(Nc3ccc(OC(F)(F)F)cc3)nc3ccc(C(=O)N(C)C)cc32)CC(C)(C)C1` (racemic) [Example 2-20, (±) N,N-dimethyl-2-{[4-(trifluoromethoxy)phenyl]amino}-1-[(cis)-3,3,5-trimethylcyclohexyl]-1H-benzimidazole-6-carboxamide], for which the IC50 on IDH1 R132H enzyme was determined as 100 nM; in assay [1] (Homo sapiens, LN-229, 24 h), 2000 nM.

`COC(=O)c1ccc2nc(Nc3ccc(OC(F)(F)F)cc3)n([C@H]3C[C@H](C)CC(C)(C)C3)c2c1` (racemic) [Example 2-2, (±) methyl 2-{[4-(trifluoromethoxy)phenyl]amino}-1-[(trans)-3,3,5-trimethylcyclohexyl]-1H-benzimidazole-6-carboxylate]: the IC50 in assay [1] (Homo sapiens, LN-229, 24 h) was 10000 nM.

On to `C[C@@H]1C[C@H](n2c(Nc3ccc(OC(F)(F)F)cc3)nc3ccc(C(=O)N(C)C)cc32)CC(C)(C)C1` (single isomer, unassigned; enantiomer a) [Example 2-20-1, (±) N,N-dimethyl-2-{[4-(trifluoromethoxy)phenyl]amino}-1-[(cis)-3,3,5-trimethylcyclohexyl]-1H-benzimidazole-6-carboxamide, enantiomer A], for which the IC50 against IDH1 R132H enzyme is 80 nM; in assay [1], 1800 nM.

Broadly, the IC50 is the concentration at which inhibition is half-maximal.
